Laboratory results from patent US8076338B2, “Kinase modulators and methods of use” (Exelixis, Inc., priority 2004, dated 2011).
Like-named read-outs stand apart in the source and are kept apart here.

Key:
[1] = target: AktK (Homo sapiens, UniProt P31749); test: Luciferase-coupled chemiluminescence kinase assay (ATP consumption); type: biochemical; details: read-out: AKT-1 IC50
Outline: (§1)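 Enzyme at 2.5-5 nM was preincubated 30 min at room temperature with compound in Tris pH 7.5, MgCl2, TX-100, DTT, then reacted with ATP for 3 h at ambient temperature. Remaining ATP was quantified by luciferase-luciferin chemiluminescence, with consumption kept at 25-60%; […].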

[2] = target: p70S6K (Homo sapiens, UniProt P23443); test: as above; type: biochemical
Chain of p70S6K (P23443 whole entry): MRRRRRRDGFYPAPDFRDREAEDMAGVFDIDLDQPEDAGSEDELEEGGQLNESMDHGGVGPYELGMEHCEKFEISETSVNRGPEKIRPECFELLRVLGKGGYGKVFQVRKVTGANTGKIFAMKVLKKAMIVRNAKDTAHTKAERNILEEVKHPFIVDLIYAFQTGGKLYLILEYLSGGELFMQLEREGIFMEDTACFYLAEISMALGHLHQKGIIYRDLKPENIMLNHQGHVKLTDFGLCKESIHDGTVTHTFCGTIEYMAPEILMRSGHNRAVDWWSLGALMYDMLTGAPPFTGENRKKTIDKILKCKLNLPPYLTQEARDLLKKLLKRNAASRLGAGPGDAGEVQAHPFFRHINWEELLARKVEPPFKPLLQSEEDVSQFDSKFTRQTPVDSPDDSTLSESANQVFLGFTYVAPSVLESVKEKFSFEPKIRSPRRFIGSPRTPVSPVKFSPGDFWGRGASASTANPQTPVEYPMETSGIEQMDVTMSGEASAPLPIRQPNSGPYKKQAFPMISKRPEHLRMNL
Outline: as §1

Chain of AktK (P31749 whole entry): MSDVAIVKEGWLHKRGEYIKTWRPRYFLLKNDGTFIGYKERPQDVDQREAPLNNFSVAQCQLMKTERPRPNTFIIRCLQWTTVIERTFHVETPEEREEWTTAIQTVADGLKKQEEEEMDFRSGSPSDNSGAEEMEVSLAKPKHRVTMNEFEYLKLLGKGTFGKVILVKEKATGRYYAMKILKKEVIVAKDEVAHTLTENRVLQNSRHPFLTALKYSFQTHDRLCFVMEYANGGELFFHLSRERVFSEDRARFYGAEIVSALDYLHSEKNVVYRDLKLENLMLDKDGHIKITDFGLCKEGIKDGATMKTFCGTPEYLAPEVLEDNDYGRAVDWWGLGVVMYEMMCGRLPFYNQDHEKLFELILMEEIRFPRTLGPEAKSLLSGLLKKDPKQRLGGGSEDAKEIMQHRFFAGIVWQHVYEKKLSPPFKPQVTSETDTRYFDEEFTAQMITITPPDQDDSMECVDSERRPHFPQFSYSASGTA

Row | Compound | IC50 ([1]; Table 1, class symbols per key) [nM] | IC50 ([2]; Table 1, class symbols per key) [nM] | IC50 [1] [nM] | IC50 [2] [nM]
1 | Cc1c(NCCN2CCCC2)cc(OCC2CCCCC2)cc1N1CCN(c2ncnc3[nH]nc(Br)c23)CC1 [Entry 217, 3-[4-(3-bromo-1H-pyrazolo[3,4-d]pyrimidin-4-yl)piperazin-1-yl]-5-[(cyclohexylmethyl)oxy]-2-methyl-N-(2-pyrrolidin-1-ylethyl)aniline] | 100 to 1000 | < 100 | – | –
2 | CCc1n[nH]c2ncnc(N3CCN(c4cccc(Cl)c4)C(CO)C3)c12 (stereo not drawn) [Entry 379, [1-(3-chlorophenyl)-4-(3-ethyl-1H-pyrazolo[3,4-d]pyrimidin-4-yl)piperazin-2-yl]methanol] | – | – | 1000 to 10000 | < 100
3 | Cc1ccc(Cl)cc1N1CCN(c2ncnc3[nH]nc(-c4ccc(F)cc4)c23)CC1 [Entry 357, 4-[4-(5-chloro-2-methylphenyl)piperazin-1-yl]-3-(4-fluorophenyl)-1H-pyrazolo[3,4-d]pyrimidine] | – | – | 1000 to 10000 | 100 to 1000
4 | CCCOc1cc(NCCN2CCCC2)c(C)c(N2CCN(c3ncnc4[nH]nc(Br)c34)CC2)c1 [Entry 224, 3-[4-(3-bromo-1H-pyrazolo[3,4-d]pyrimidin-4-yl)piperazin-1-yl]-2-methyl-5-(propyloxy)-N-(2-pyrrolidin-1-ylethyl)aniline] | < 100 | < 100 | – | –
5 | Cc1ccc(Cl)cc1N1CCN(c2ncnc3[nH]nc(C#CCN4CCCC4)c23)CC1 [Entry 397, 4-[4-(5-chloro-2-methylphenyl)piperazin-1-yl]-3-(3-pyrrolidin-1-ylprop-1-yn-1-yl)-1H-pyrazolo[3,4-d]pyrimidine] | – | – | 1000 to 10000 | 100 to 1000
6 | CCc1n[nH]c2ncnc(N3CCN(c4cc(OCc5ccccc5)cc(NCCN5CCCC5)c4C)CC3)c12 [Entry 174, 3-[4-(3-ethyl-1H-pyrazolo[3,4-d]pyrimidin-4-yl)piperazin-1-yl]-2-methyl-5-[(phenylmethyl)oxy]-N-(2-pyrrolidin-1-ylethyl)aniline] | 100 to 1000 | < 100 | – | –
7 | FC(F)(F)c1cc(N2CCN(c3ncnc4[nH]nc(Br)c34)CC2)c2ccccc2n1 [Entry 109, 4-[4-(3-bromo-1H-pyrazolo[3,4-d]pyrimidin-4-yl)piperazin-1-yl]-2-(trifluoromethyl)quinoline] | ≥ 10000 | < 100 | – | –
8 | Cc1ccccc1N1CCN(c2ncnc3[nH]cnc23)CC1 [Entry 315, 6-[4-(2-methylphenyl)piperazin-1-yl]-9H-purine] | – | – | ≥ 10000 | 100 to 1000
9 | CCc1n[nH]c2ncnc(N3CCN(c4cccc(OC)c4C)CC3)c12 [Entry 145, 3-ethyl-4-{4-[2-methyl-3-(methyloxy)phenyl]piper-azin-1-yl}-1H-pyrazolo[3,4-d]pyrimidine] | ≥ 10000 | < 100 | – | –
10 | CNC(=O)c1ccc(C)c(N2CCN(c3ncnc4[nH]nc(Br)c34)CC2)c1 [Entry 188, 3-[4-(3-bromo-1H-pyrazolo[3,4-d]pyrimidin-4-yl)piperazin-1-yl]-N,4-dimethylbenzamide] | 100 to 1000 | < 100 | – | –
11 | CCOCc1cc(NCCN2CCCC2)c(C)c(N2CCN(c3ncnc4[nH]nc(Br)c34)CC2)c1 [Entry 272, 3-[4-(3-bromo-1H-pyrazolo[3,4-d]pyrimidin-4-yl)piperazin-1-yl]-5-[(ethyloxy)methyl]-2-methyl-N-(2-pyrrolidin-1-ylethyl)aniline] | < 100 | < 100 | – | –
12 | CCc1n[nH]c2ncnc(N3CCN(c4cc(Cl)cc(C(=O)NCCN(C)C)c4OC)CC3)c12 [Entry 374, 5-chloro-N-[2-(dimethylamino)ethyl]-3-[4-(3-ethyl-1H-pyrazolo[3,4-d]pyrimidin-4-yl)piperazin-1-yl]-2-(methyloxy)benzamide] | – | – | 1000 to 10000 | < 100
13 | Clc1cccc(N2CCN(c3ncnc4[nH]nc(Br)c34)CC2)c1Cl [Entry 150, 3-bromo-4-[4-(2,3-dichlorophenyl)piperazin-1-yl]-1H-pyrazolo[3,4-d]pyrimidine] | ≥ 10000 | 100 to 1000 | – | –
14 | CCc1n[nH]c2ncnc(N3CCN(c4cc(Cl)cc(CO)c4OC)CC3)c12 [Entry 367, [5-chloro-3-[4-(3-ethyl-1H-pyrazolo[3,4-d]pyrimidin-4-yl)piperazin-1-yl]-2-(methyloxy)phenyl]methanol] | – | – | 1000 to 10000 | < 100
15 | Cc1ccc(Cl)cc1N1CCN(c2ncnc3[nH]nc(C=C4C[C@@H]5CN(C(=O)OCc6ccccc6)C[C@@H]5C4)c23)CC1 [Entry 395, phenylmethyl (3aR,6aS)-5-({4-[4-(5-chloro-2-methylphenyl)piperazin-1-yl]-1H-pyrazolo[3,4-d]pyrimidin-3-yl}methylidene)hexahydrocyclo-penta[c]pyrrole-2(1H)-carboxylate] | – | – | 1000 to 10000 | 1000 to 10000
16 | CCC(=O)c1cc(NCCN2CCCC2)c(C)c(N2CCN(c3ncnc4[nH]nc(Br)c34)CC2)c1 [Entry 243, 1-{3-[4-(3-bromo-1H-pyrazolo[3,4-d]pyrimidin-4-yl)piperazin-1-yl]-4-methyl-5-[(2-pyrrolidin-1-ylethyl)amino]phenyl}propan-1-one] | < 100 | < 100 | – | –
17 | Brc1n[nH]c2ncnc(N3CCN(c4cccc(OCCN5CCCCC5)c4)CC3)c12 [Entry 142, 3-bromo-4-(4-{3-[(2-piperidin-1-ylethyl)oxy]phenyl}piperazin-1-yl)-1H-pyrazolo[3,4-d]pyrimidine] | 1000 to 10000 | 100 to 1000 | – | –
18 | CCc1n[nH]c2ncnc(N3CCN(c4cccc(OC)c4)CC3)c12 [Entry 99, 3-ethyl-4-{4-[3-(methyloxy)phenyl]piperazin-1-yl}-1H-pyrazolo[3,4-d]pyrimidine] | ≥ 10000 | 100 to 1000 | – | –
19 | Cc1ccc(Cl)cc1N1CCN(c2ncnc3[nH]nc(-c4ccc(Oc5ccccc5)cc4)c23)CC1 [Entry 358, 4-[4-(5-chloro-2-methylphenyl)piperazin-1-yl]-3-[4-(phenyloxy)phenyl]-1H-pyrazolo[3,4-d]pyrimidine] | – | – | 1000 to 10000 | 100 to 1000
20 | COc1cc(OC)cc(N2CCN(c3ncnc4[nH]nc(Br)c34)CC2)c1 [Entry 80, 4-{4-[3,5-bis(methyloxy)phenyl]piperazin-1-yl}-3-bromo-1H-pyrazolo[3,4-d]pyrimidine] | 1000 to 10000 | < 100 | – | –
21 | Brc1n[nH]c2ncnc(N3CCN(c4nccc(-c5ccco5)n4)CC3)c12 [Entry 143, 3-bromo-4-[4-(4-furan-2-ylpyrimidin-2-yl)piperazin-1-yl]-1H-pyrazolo[3,4-d]pyrimidine] | ≥ 10000 | 100 to 1000 | – | –
22 | CCN(CC)CCCOc1cc(Cl)cc(N2CCN(c3ncnc4[nH]nc(Br)c34)CC2)c1C [Entry 83, 3-({3-[4-(3-bromo-1H-pyrazolo[3,4-d]pyrimidin-4-yl)piperazin-1-yl]-5-chloro-2-methylphenyl}oxy)-N,N-diethylpropan-1-amine] | < 100 | < 100 | – | –
23 | Clc1ccc(Cl)c(N2CCN(c3ncnc4[nH]nc(Br)c34)CC2)c1 [Entry 95, 3-bromo-4-[4-(2,5-dichlorophenyl)piperazin-1-yl]-1H-pyrazolo[3,4-d]pyrimidine] | ≥ 10000 | < 100 | – | –
24 | Cc1c(CCCN2CCCC2)cc(Cl)cc1N1CCN(c2ncnc3[nH]ncc23)CC1 [Entry 59, 4-{4-[5-chloro-2-methyl-3-(3-pyrrolidin-1-ylpropyl)phenyl]piperazin-1-yl}-1H-pyrazolo[3,4-d]pyrimidine] | 1000 to 10000 | < 100 | – | –
